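Compound exposure: 48 hours, 5 concentrations, 96-well plates. Abbreviation: GI50, concentration required for 50% inhibition of growth. Definition used: TGI = concentration required for complete inhibition of growth.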
Columns and labels:
Test in all cases: DTP human tumour cell line panel, 48 h
[1] = test system: 786-0 renal
[2] = test system: A498 renal
[3] = test system: A549 NSCLC
[4] = test system: ACHN renal
[5] = test system: BT-549 breast
[6] = test system: CAKI-1 renal
[7] = test system: CCRF-CEM leukemia
[8] = test system: COLO 205 colon
[9] = test system: DU-145 prostate
[10] = test system: EKVX NSCLC
[11] = test system: HCC-2998 colon
[12] = test system: HCT-116 colon
[13] = test system: HCT-15 colon
[14] = test system: HL-60(TB) leukemia
[15] = test system: HOP-62 NSCLC
[16] = test system: HS 578T breast
[17] = test system: HT29 colon
[18] = test system: IGROV1 ovarian
[19] = test system: K-562 leukemia
[20] = test system: KM12 colon
[21] = test system: LOX IMVI melanoma
[22] = test system: M14 melanoma
[23] = test system: MALME-3M melanoma
[24] = test system: MCF7 breast
[25] = test system: MDA-MB-231 breast
[26] = test system: MDA-MB-435
[27] = test system: MOLT-4 leukemia
[28] = test system: NCI-H226 lung
[29] = test system: NCI-H23 lung
[30] = test system: NCI-H460 lung
[31] = test system: NCI-H522 lung
[32] = test system: NCI/ADR-RES ovarian
[33] = test system: OVCAR-3 ovarian
[34] = test system: OVCAR-4 ovarian
[35] = test system: OVCAR-5 ovarian
[36] = test system: OVCAR-8 ovarian
[37] = test system: PC-3 prostate
[38] = test system: RPMI-8226 leukemia
[39] = test system: SF-268 CNS
[40] = test system: SF-295 CNS
[41] = test system: SF-539 CNS
[42] = test system: SK-MEL-2 melanoma
[43] = test system: SK-MEL-28 melanoma
[44] = test system: SK-MEL-5 melanoma
[45] = test system: SK-OV-3 ovarian
[46] = test system: SN12C renal
[47] = test system: SNB-19 CNS
[48] = test system: SNB-75 CNS
[49] = test system: SR leukemia
[50] = test system: SW-620 colon
[51] = test system: T-47D breast
[52] = test system: TK-10 renal
[53] = test system: U251 CNS
[54] = test system: UACC-257 melanoma
[55] = test system: UACC-62 melanoma
[56] = test system: UO-31 renal

`O=c1[nH]c2c(ccc3cnccc32)c2c1CCC2` showed a GI50 [1] of 344 nM, a TGI [1] of 29900 nM and a GI50 [2] of 155 nM. For the same compound, the TGI [2] was 553 nM, the GI50 [3] was 500 nM and the TGI [3] was > 53500 nM. The GI50 [4] was 279 nM, the TGI [4] was > 100000 nM and the GI50 [5] was 172 nM. For the same compound, the TGI [5] was 532 nM, the GI50 [6] was 308 nM and the TGI [6] was > 100000 nM. The GI50 [7] was 248 nM, the TGI [7] was 708 nM and the GI50 [8] was 241 nM. For the same compound, the TGI [8] was 677 nM, the GI50 [9] was 376 nM and the TGI [9] was > 100000 nM. For the same compound, the GI50 [10] was 1470 nM, the TGI [10] was > 100000 nM and the GI50 [11] was 356 nM. For the same compound, the TGI [11] was 1910 nM, the GI50 [12] was 267 nM and the TGI [12] was > 45800 nM. The GI50 [13] was 357 nM, the TGI [13] was > 100000 nM and the GI50 [14] was 272 nM. The GI50 [15] was 431 nM, the TGI [15] was > 100000 nM and the GI50 [16] was 247 nM. For the same compound, the TGI [16] was 808 nM, the GI50 [17] was 447 nM and the TGI [17] was > 100000 nM. The GI50 [18] was 258 nM, the TGI [18] was 923 nM and the GI50 [19] was 657 nM. The TGI [19] was > 100000 nM, the GI50 [20] was 332 nM and the TGI [20] was > 35700 nM. For the same compound, the GI50 [21] was 282 nM, the TGI [21] was > 33200 nM and the GI50 [22] was 350 nM. The TGI [22] was 1620 nM, the GI50 [23] was 312 nM and the TGI [23] was 951 nM. The GI50 [24] was 317 nM, the GI50 [25] was 361 nM and the TGI [25] was > 100000 nM. It also gave a GI50 [26] of 307 nM, a TGI [26] of 1380 nM and a GI50 [27] of 386 nM. For the same compound, the TGI [27] was > 100000 nM, the GI50 [28] was 252 nM and the TGI [28] was 897 nM. The GI50 [29] was 394 nM, the TGI [29] was > 20300 nM and the GI50 [30] was 376 nM. For the same compound, the TGI [30] was > 28900 nM, the GI50 [31] was 277 nM and the GI50 [32] was 426 nM. The TGI [32] was > 100000 nM, the GI50 [33] was 277 nM and the TGI [33] was 11700 nM. For the same compound, the GI50 [34] was 726 nM, the TGI [34] was > 100000 nM and the GI50 [35] was 461 nM. For the same compound, the TGI [35] was > 100000 nM, the GI50 [36] was 331 nM and the TGI [36] was > 100000 nM. For the same compound, the GI50 [37] was 288 nM, the GI50 [38] was 244 nM and the TGI [38] was 1180 nM. The GI50 [39] was 333 nM, the TGI [39] was 37300 nM and the GI50 [40] was 362 nM. For the same compound, the TGI [40] was > 100000 nM, the GI50 [41] was 219 nM and the TGI [41] was 585 nM. The GI50 [42] was 221 nM, the TGI [42] was 673 nM and the GI50 [43] was 306 nM. For the same compound, the TGI [43] was 840 nM, the GI50 [44] was 196 nM and the TGI [44] was 517 nM. For the same compound, the GI50 [45] was 1700 nM, the TGI [45] was > 100000 nM and the GI50 [46] was 365 nM. For the same compound, the TGI [46] was > 100000 nM, the GI50 [47] was 356 nM and the TGI [47] was > 100000 nM. For the same compound, the GI50 [48] was 324 nM, the TGI [48] was 1400 nM and the TGI [49] was > 100000 nM. The GI50 [50] was 308 nM, the TGI [50] was 1840 nM and the GI50 [51] was 352 nM. The TGI [51] was > 100000 nM, the GI50 [52] was 331 nM and the GI50 [53] was 330 nM. The TGI [53] was > 100000 nM, the GI50 [54] was 245 nM and the TGI [54] was 833 nM. The GI50 [55] was 214 nM, the TGI [55] was 622 nM and the GI50 [56] was 243 nM. For the same compound, the TGI [56] was 670 nM.
